Reference: ChEMBL document CHEMBL3045439, “Isoforms of the heteropteran Nezara viridula ecdysone receptor: protein characterisation, RH5992 insecticide binding and homology modelling” (Pest Manag Sci, 2011)

Experiments:
Format in all cases: protein-complex assay
Ecdysone receptor [1] = molecular target: T1, Ecdysone receptor (Leptinotarsa decemlineata, UniProt Q4W6C8+Q4W6D0); assay: Binding affinity to Leptinotarsa decemlineata EcR
T1 sequence (Q4W6D0 whole entry): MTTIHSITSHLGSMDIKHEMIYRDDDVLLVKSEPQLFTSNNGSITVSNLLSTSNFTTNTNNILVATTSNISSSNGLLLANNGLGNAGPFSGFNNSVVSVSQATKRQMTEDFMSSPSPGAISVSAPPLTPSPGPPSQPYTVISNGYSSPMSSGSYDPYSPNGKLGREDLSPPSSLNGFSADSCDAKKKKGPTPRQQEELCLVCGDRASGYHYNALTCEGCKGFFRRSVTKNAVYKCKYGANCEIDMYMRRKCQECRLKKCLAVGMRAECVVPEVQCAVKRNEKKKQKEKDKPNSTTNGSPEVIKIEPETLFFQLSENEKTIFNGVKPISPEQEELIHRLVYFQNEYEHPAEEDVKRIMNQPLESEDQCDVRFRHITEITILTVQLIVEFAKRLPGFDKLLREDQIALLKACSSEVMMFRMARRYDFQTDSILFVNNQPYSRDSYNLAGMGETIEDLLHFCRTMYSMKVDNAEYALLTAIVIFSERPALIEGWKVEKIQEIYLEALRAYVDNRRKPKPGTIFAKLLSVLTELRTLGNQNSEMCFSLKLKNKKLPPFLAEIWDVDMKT
T1 sequence (Q4W6C8 whole entry): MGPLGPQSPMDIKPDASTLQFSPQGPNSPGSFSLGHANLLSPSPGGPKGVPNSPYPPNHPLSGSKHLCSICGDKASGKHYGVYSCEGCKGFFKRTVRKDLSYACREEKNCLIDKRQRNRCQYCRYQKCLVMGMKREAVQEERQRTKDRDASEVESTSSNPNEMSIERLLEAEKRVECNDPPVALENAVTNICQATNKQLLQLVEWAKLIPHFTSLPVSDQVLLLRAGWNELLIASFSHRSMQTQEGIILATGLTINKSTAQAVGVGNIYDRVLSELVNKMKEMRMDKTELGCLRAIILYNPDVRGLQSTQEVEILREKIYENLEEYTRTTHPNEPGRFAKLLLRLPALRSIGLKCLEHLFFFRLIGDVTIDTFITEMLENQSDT

Ecdysone receptor [2] = molecular target: T2, Ecdysone receptor (Nezara viridula, UniProt E5L6Y0+E5L6Y1); assay: Displacement of [3H]PonA from recombinant Nezara viridula EcR11
T2 sequence (E5L6Y1 whole entry): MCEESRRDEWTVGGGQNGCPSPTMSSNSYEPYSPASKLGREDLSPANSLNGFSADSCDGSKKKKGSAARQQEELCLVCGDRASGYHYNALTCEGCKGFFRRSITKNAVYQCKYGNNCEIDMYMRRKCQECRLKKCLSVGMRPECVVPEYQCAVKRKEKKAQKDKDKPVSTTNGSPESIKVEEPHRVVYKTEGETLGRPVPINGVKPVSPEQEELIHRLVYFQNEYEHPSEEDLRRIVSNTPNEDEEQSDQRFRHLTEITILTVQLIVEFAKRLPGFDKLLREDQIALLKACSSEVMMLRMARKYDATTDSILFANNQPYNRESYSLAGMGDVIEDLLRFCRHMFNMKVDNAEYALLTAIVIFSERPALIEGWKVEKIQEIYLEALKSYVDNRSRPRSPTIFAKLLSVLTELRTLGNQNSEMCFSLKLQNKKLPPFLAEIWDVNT
T2 sequence (E5L6Y0 whole entry): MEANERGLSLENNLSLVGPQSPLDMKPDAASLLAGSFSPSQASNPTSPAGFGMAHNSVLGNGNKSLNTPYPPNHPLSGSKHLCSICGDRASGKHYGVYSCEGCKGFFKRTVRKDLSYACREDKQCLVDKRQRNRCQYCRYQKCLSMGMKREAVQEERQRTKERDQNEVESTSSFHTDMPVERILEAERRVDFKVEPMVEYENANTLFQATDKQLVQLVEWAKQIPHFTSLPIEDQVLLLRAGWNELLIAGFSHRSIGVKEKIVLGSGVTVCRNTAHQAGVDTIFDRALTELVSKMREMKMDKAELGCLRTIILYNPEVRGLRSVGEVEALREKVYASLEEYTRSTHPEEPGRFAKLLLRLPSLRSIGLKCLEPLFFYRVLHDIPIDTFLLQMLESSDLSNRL

Ecdysone receptor [3] = molecular target: T3, Ecdysone receptor (Chironomus tentans, UniProt O45117+P49882); assay: Binding affinity to Chironomus tentans EcR
T3 sequence (P49882 whole entry): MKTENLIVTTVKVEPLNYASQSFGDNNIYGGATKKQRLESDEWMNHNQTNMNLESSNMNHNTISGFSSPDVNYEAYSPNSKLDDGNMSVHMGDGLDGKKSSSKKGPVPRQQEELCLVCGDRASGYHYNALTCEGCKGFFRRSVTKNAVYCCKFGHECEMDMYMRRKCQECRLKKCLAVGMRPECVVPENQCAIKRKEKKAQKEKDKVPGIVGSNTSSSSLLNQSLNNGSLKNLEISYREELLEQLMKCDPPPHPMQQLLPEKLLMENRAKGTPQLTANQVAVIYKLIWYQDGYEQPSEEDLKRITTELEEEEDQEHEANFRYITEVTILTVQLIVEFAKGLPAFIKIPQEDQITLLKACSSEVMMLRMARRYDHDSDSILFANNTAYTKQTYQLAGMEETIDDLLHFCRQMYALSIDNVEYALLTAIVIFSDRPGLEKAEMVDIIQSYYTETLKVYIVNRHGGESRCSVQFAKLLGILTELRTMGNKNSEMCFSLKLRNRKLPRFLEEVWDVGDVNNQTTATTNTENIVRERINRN
T3 sequence (O45117 whole entry): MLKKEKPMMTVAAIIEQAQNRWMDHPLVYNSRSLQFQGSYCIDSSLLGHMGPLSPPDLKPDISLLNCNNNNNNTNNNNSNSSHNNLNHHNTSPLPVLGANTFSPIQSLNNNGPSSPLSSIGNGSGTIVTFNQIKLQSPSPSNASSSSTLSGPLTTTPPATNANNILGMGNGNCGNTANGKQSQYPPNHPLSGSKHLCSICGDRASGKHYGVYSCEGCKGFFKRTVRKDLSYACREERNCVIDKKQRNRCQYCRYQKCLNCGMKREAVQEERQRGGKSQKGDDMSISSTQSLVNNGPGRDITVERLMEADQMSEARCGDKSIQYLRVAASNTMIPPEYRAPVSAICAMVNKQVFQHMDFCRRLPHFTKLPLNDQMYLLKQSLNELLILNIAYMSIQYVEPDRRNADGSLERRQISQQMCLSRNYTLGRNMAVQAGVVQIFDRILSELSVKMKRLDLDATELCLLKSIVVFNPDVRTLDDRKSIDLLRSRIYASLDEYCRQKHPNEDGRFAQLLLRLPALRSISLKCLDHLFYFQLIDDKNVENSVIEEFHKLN

Compound | IC50 (Ecdysone receptor [1]) [µM] | IC50 (Ecdysone receptor [2]) [µM] | Ki (Ecdysone receptor [2]) [µM] | Ki (Ecdysone receptor [1]) [µM] | Ki (Ecdysone receptor [3]) [µM]
CC(C)(O)CC[C@@H](O)[C@](C)(O)[C@H]1CC[C@@]2(O)C3=CC(=O)[C@@H]4C[C@@H](O)[C@@H](O)C[C@]4(C)[C@H]3CC[C@]12C [20-HYDROXYECDYSONE] | 0.437 | 4.5 | 3 |  | 
CCc1ccc(C(=O)NN(C(=O)c2cc(C)cc(C)c2)C(C)(C)C)cc1 [TEBUFENOZIDE] |  | 28 | 23.9 | 2.51 | 0.01
